Measured values taken from PubChem BioAssay AID1963847 (Molecular Pharmacology Branch, DTP, NCI, 2024).

Tested on: 415267-285-R-J2-PDC complex spheroid viability
Test: Anticancer human tumor 415267-285-R-J2-PDC patient-derived breast carcinoma cell line growth inhibition [POLQ]
Conditions: for IC50: curve of first compound; for viability, T/C: stronger effect = lower value
Outline: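 Growth inhibition in 3D: complex spheroids (tumor PDC, HUVEC, MSC) treated with POLQ inhibitor combinations; where Cmax unknown, highest tested concentration 10 microM, except SN-38 at 1 microM.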

[1] = second compound 0.0316 µM, first compound 0.0316 µM
[2] = second compound 0.0316 µM, first compound 0.1 µM
[3] = second compound 0.0316 µM, first compound 0.316 µM
[4] = second compound 0.0316 µM, first compound 1 µM
[5] = second compound 0.1 µM, first compound 0.0316 µM
[6] = second compound 0.1 µM, first compound 0.1 µM
[7] = second compound 0.1 µM, first compound 0.316 µM
[8] = second compound 0.1 µM, first compound 1 µM
[9] = second compound 0.316 µM, first compound 0.0316 µM
[10] = second compound 0.316 µM, first compound 0.1 µM
[11] = second compound 0.316 µM, first compound 0.316 µM
[12] = second compound 0.316 µM, first compound 1 µM
[13] = second compound 1 µM, first compound 0.0316 µM
[14] = second compound 1 µM, first compound 0.1 µM
[15] = second compound 1 µM, first compound 0.316 µM
[16] = second compound 1 µM, first compound 1 µM
[17] = second compound 3.16 µM, first compound 0.0316 µM
[18] = second compound 3.16 µM, first compound 0.1 µM
[19] = second compound 3.16 µM, first compound 0.316 µM
[20] = second compound 3.16 µM, first compound 1 µM
[21] = second compound 10 µM, first compound 0.0316 µM
[22] = second compound 10 µM, first compound 0.1 µM
[23] = second compound 10 µM, first compound 0.316 µM
[24] = second compound 10 µM, first compound 1 µM
[25] = second compound 0.0316 µM, first compound 3.16 µM
[26] = second compound 0.0316 µM, first compound 10 µM
[27] = second compound 0.1 µM, first compound 3.16 µM
[28] = second compound 0.1 µM, first compound 10 µM
[29] = second compound 0.316 µM, first compound 3.16 µM
[30] = second compound 0.316 µM, first compound 10 µM
[31] = second compound 1 µM, first compound 3.16 µM
[32] = second compound 1 µM, first compound 10 µM
[33] = second compound 3.16 µM, first compound 3.16 µM
[34] = second compound 3.16 µM, first compound 10 µM
[35] = second compound 10 µM, first compound 3.16 µM
[36] = second compound 10 µM, first compound 10 µM
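Also: spheroids exposed to compounds for one week before readout.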
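For viability, T/C in this document: luminescence used as stand-in measure of viable cells; 100% = DMSO vehicle control viability.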

## C=CCn1c(=O)c2cnc(Nc3ccc(N4CCN(C)CC4)cc3)nc2n1-c1cccc(C(C)(C)O)n1 + Nc1ccc(C#CCN(C(=O)Cc2ncc(C(F)(F)F)cc2C(F)(F)F)c2ccc(F)cc2)nn1
Second compound 0.0316 µM
  IC50: 447 nM
Second compound 0.1 µM
  IC50: 404 nM
Second compound 0.316 µM
  IC50: 427 nM
Second compound 1 µM
  IC50: 396 nM
Second compound 3.16 µM
  IC50: 342 nM
Second compound 10 µM
  IC50: 318 nM
Second compound 0.0316 µM, first compound 0.00316 µM
  viability, T/C: 95.1%
Second compound 0.0316 µM, first compound 0.01 µM
  viability, T/C: 102%
[1]
  viability, T/C: 94.8%
[2]
  viability, T/C: 98.2%
[3]
  viability, T/C: 69%
[4]
  viability, T/C: 5.9%
Second compound 0.1 µM, first compound 0.00316 µM
  viability, T/C: 107%
Second compound 0.1 µM, first compound 0.01 µM
  viability, T/C: 104%
[5]
  viability, T/C: 102%
[6]
  viability, T/C: 87.6%
[7]
  viability, T/C: 62.2%
[8]
  viability, T/C: 6.38%
Second compound 0.316 µM, first compound 0.00316 µM
  viability, T/C: 108%
Second compound 0.316 µM, first compound 0.01 µM
  viability, T/C: 108%
[9]
  viability, T/C: 86.9%
[10]
  viability, T/C: 96.3%
[11]
  viability, T/C: 65.5%
[12]
  viability, T/C: 5.51%
Second compound 1 µM, first compound 0.00316 µM
  viability, T/C: 104%
Second compound 1 µM, first compound 0.01 µM
  viability, T/C: 95%
[13]
  viability, T/C: 101%
[14]
  viability, T/C: 87%
[15]
  viability, T/C: 61.1%
[16]
  viability, T/C: 4.94%
Second compound 3.16 µM, first compound 0.00316 µM
  viability, T/C: 106%
Second compound 3.16 µM, first compound 0.01 µM
  viability, T/C: 93.1%
[17]
  viability, T/C: 95.3%
[18]
  viability, T/C: 92.5%
[19]
  viability, T/C: 53%
[20]
  viability, T/C: 7.32%
Second compound 10 µM, first compound 0.00316 µM
  viability, T/C: 94.3%
Second compound 10 µM, first compound 0.01 µM
  viability, T/C: 95.5%
[21]
  viability, T/C: 107%
[22]
  viability, T/C: 91.7%
[23]
  viability, T/C: 50.3%
[24]
  viability, T/C: 5.62%

## CC(C)n1c(=O)n(C)c2cnc3cc(F)c(-c4ccc(OCCCN5CCCCC5)nc4)cc3c21 + Nc1ccc(C#CCN(C(=O)Cc2ncc(C(F)(F)F)cc2C(F)(F)F)c2ccc(F)cc2)nn1
Second compound 0.0316 µM
  IC50: > 10000 nM
Second compound 0.1 µM
  IC50: > 10000 nM
Second compound 0.316 µM
  IC50: > 10000 nM
Second compound 1 µM
  IC50: > 10000 nM
Second compound 3.16 µM
  IC50: > 10000 nM
Second compound 10 µM
  IC50: > 10000 nM
[1]
  viability, T/C: 102%
[2]
  viability, T/C: 107%
[3]
  viability, T/C: 105%
[4]
  viability, T/C: 122%
[25]
  viability, T/C: 104%
[26]
  viability, T/C: 103%
[5]
  viability, T/C: 103%
[6]
  viability, T/C: 105%
[7]
  viability, T/C: 108%
[8]
  viability, T/C: 96.1%
[27]
  viability, T/C: 101%
[28]
  viability, T/C: 97.6%
[9]
  viability, T/C: 102%
[10]
  viability, T/C: 113%
[11]
  viability, T/C: 101%
[12]
  viability, T/C: 105%
[29]
  viability, T/C: 103%
[30]
  viability, T/C: 108%
[13]
  viability, T/C: 102%
[14]
  viability, T/C: 105%
[15]
  viability, T/C: 96.4%
[16]
  viability, T/C: 101%
[31]
  viability, T/C: 111%
[32]
  viability, T/C: 108%
[17]
  viability, T/C: 101%
[18]
  viability, T/C: 107%
[19]
  viability, T/C: 110%
[20]
  viability, T/C: 111%
[33]
  viability, T/C: 108%
[34]
  viability, T/C: 115%
[21]
  viability, T/C: 108%
[22]
  viability, T/C: 109%
[23]
  viability, T/C: 117%
[24]
  viability, T/C: 126%
[35]
  viability, T/C: 106%
[36]
  viability, T/C: 117%

## CC1COCCN1c1cc(C2(S(C)(=N)=O)CC2)nc(-c2ccnc3[nH]ccc23)n1 (stereo unspecified) + Nc1ccc(C#CCN(C(=O)Cc2ncc(C(F)(F)F)cc2C(F)(F)F)c2ccc(F)cc2)nn1
Second compound 0.0316 µM
  IC50: 541 nM
Second compound 0.1 µM
  IC50: 514 nM
Second compound 0.316 µM
  IC50: 592 nM
Second compound 1 µM
  IC50: 537 nM
Second compound 3.16 µM
  IC50: 559 nM
Second compound 10 µM
  IC50: 527 nM
[1]
  viability, T/C: 106%
[2]
  viability, T/C: 113%
[3]
  viability, T/C: 81.3%
[4]
  viability, T/C: 14.2%
[25]
  viability, T/C: 5.34%
[26]
  viability, T/C: 3.83%
[5]
  viability, T/C: 94.3%
[6]
  viability, T/C: 108%
[7]
  viability, T/C: 75%
[8]
  viability, T/C: 15.4%
[27]
  viability, T/C: 5.4%
[28]
  viability, T/C: 3.91%
[9]
  viability, T/C: 104%
[10]
  viability, T/C: 101%
[11]
  viability, T/C: 92.6%
[12]
  viability, T/C: 14.3%
[29]
  viability, T/C: 5.2%
[30]
  viability, T/C: 3.58%
[13]
  viability, T/C: 104%
[14]
  viability, T/C: 95%
[15]
  viability, T/C: 81.9%
[16]
  viability, T/C: 12.5%
[31]
  viability, T/C: 6.5%
[32]
  viability, T/C: 2.93%
[17]
  viability, T/C: 102%
[18]
  viability, T/C: 104%
[19]
  viability, T/C: 87.3%
[20]
  viability, T/C: 12%
[33]
  viability, T/C: 5.15%
[34]
  viability, T/C: 4.26%
[21]
  viability, T/C: 111%
[22]
  viability, T/C: 91.2%
[23]
  viability, T/C: 80.8%
[24]
  viability, T/C: 11.4%
[35]
  viability, T/C: 5.02%
[36]
  viability, T/C: 4.34%
